Experimental data: PMC11822746, “Nanoscale Hydrophobicity of Transport Barriers in the Nuclear Pore Complex as Compared with the Liquid/Liquid Interface by Scanning Electrochemical Microscopy” (Analytical Chemistry, 2025)

What was measured:
[1] = tested on: NPCs of micropore-supported nuclear envelope (NE); assay: Steady-state SECM approach-curve measurement of NPC permeability to GRn; type: in vitro ADME, Xenopus laevis; settings: SECM approach curve at centre of micropore-supported NE patch, 10 μm-diameter micropipet, MIB; 8.6 μM GR25 or 130 μM GR5; finite element fit, homogeneous model; fit uncertainty ±20%
Protocol: The nucleus was isolated from the stage VI oocyte of an adult female X. laevis frog (Ecocyte Bioscience, Austin, Texas) to spread the NE on a microporous Si3N4 membrane, as reported elsewhere.[24] The large nucleus (∼0.4 mm in diameter) was isolated in the isotonic 1.5% PVP solution of mock intracellular buffer (MIB) at pH 7.4. MIB contains 90 mM KCl, 10 mM NaCl, 2 mM MgCl2, 1.1 mM EGTA, 0.15 mM CaCl2, and 10 mM HEPES, where free Ca^2+ was buffered at the physiological level of ∼200 nM in oocytes.[39] The spread NE was adhered to the membrane treated with Cell-Tak (Corning, Corning, New York).
A home-built SECM instrument[40] with a potentiostat (CHI 7042E, CH Instruments, Austin, Texas) was controlled by using a custom LabVIEW program (National Instruments, Austin, Texas).[41] Tapered micropipets were obtained from borosilicate glass capillaries (o.d./i.d. = 1.0 mm/0.58 mm, 10 cm in length) using a CO2-laser capillary puller (model P-2000 Sutter Instrument, Novato, California). […]
We employed DNNS-doped micropipets to measure the similar steady-state permeability of the NPCs to GRn. […] The strong transient response to GR25 is attributed to the dissociation of GR25 from the NPC as induced by an SECM tip and was investigated quantitatively by chronoamperometry below to confirm strong NPC–GR25 interactions. […]

[2] = extra-thermodynamic assumption (tetraphenylarsonium/tetraphenylborate); cited from earlier work
Source text: We calibrated the potential of the NB phase against the aqueous phase by using an extra-thermodynamic assumption (Figure 3) to calculate the free energy change in GRn transfer, as discussed later. Specifically, it was assumed that the free energies of tetraphenylarsonium and tetraphenylborate transfer across the interface are identical.[36] […] Half-wave and formal potentials are identical for electrochemically reversible transfer of tetrabutylammonium.

steady-state permeability, kss, through the NE [1] | Structure (SMILES) | formal potential of transfer across the NB/water interface [2]
7.2 × 10^–3 cm/s | N=C(N)NCCC[C@H](NC(=O)CNC(=O)[C@H](CCCNC(=N)N)NC(=O)CNC(=O)[C@H](CCCNC(=N)N)NC(=O)CNC(=O)[C@H](CCCNC(=N)N)NC(=O)CNC(=O)[C@H](CCCNC(=N)N)NC(=O)CNC(=O)[C@H](CCCNC(=N)N)NC(=O)CNC(=O)[C@H](CCCNC(=N)N)NC(=O)CNC(=O)[C@H](CCCNC(=N)N)NC(=O)CNC(=O)[C@H](CCCNC(=N)N)NC(=O)CNC(=O)[C@H](CCCNC(=N)N)NC(=O)CNC(=O)[C@H](CCCNC(=N)N)NC(=O)CNC(=O)[C@H](CCCNC(=N)N)NC(=O)CNC(=O)[C@H](CCCNC(=N)N)NC(=O)CNC(=O)[C@H](CCCNC(=N)N)NC(=O)CNC(=O)[C@H](CCCNC(=N)N)NC(=O)CNC(=O)[C@H](CCCNC(=N)N)NC(=O)CNC(=O)[C@H](CCCNC(=N)N)NC(=O)CNC(=O)[C@H](CCCNC(=N)N)NC(=O)CNC(=O)[C@H](CCCNC(=N)N)NC(=O)CNC(=O)[C@H](CCCNC(=N)N)NC(=O)CNC(=O)[C@H](CCCNC(=N)N)NC(=O)CNC(=O)[C@H](CCCNC(=N)N)NC(=O)CNC(=O)[C@H](CCCNC(=N)N)NC(=O)CNC(=O)[C@H](CCCNC(=N)N)NC(=O)CNC(=O)[C@H](CCCNC(=N)N)NC(=O)CN)C(=O)O [GR25] | 
 | CCCC[N+](CCCC)(CCCC)CCCC [tetrabutylammonium] | 0.29 V
